# Experimental data: patent US5837817A, “Tumor necrosis factor receptor-II-associated protein kinase and methods for its use” (Research Development Foundation, priority 1996, dated 1998)
# Key:
# [1] = test system: p80 receptor phosphorylation, SW480T cells; details: pretreatment of SW480T cells; cited from earlier work
# p80TRAK = assay: In vitro kinase assay with p80TRAK precipitated from U937 cells with p80Δ5, p80Δ5 as substrate; format: biochemical
# Experimental: (§1) An in vitro kinase assay with 10 units of purified casein kinase 1 (FIG. 11A) or p80TRAK precipitated from U937 cells with p80Δ5 (FIG. 8B) with p80Δ5 as a substrate was performed in the presence of the indicated concentration of casein kinase 1-7 dissolved in DMSO. The asterisk represents a control in which DMSO was added to a final concentration of 1.6%. Reaction mixtures were analyzed by 9% sodium dodecyl sulfate-polyacrylamide gel electrophoresis, and the dried gel was exposed to a PhosphorImager screen. The phosphorylation of p80Δ5 was quantitated by ImageQuant Software (Molecular Dynamics, Sunnyvale, Calif.) .
# (§2) Standard kinase assays were carried out for 10 minutes at 37° C. in 50 μl containing 20 mM HEPES, pH 7.4, 10 mM MgCl2, 0.2 mM ATP, 0.2 mM NaF, 0.1 mM sodium orthovanadate, and 10 μCi [γ-^32 P]ATP or as described. Reactions were stopped with 15 μl SDS-sample buffer, boiled for 5 minutes and then subjected to SDS-PAGE. Protein bands were visualized by staining with Coomassie Blue and the dried gels were analyzed by a Phosphorimager (Molecular Dynamics, Sunnyvale, Calif.). Labeled protein bands were quantitated by using ImageQuant Software (Molecular Dynamics, Sunnyvale, Calif.). […]
# purified casein kinase 1 = molecular target: T1, purified casein kinase 1 (Rattus norvegicus, UniProt Q06486); assay: In vitro kinase assay with purified casein kinase 1, p80Δ5 as substrate; format: biochemical; details: 100 μM inhibitor; 10 units purified casein kinase 1; read-out: inhibition of purified casein kinase 1, measured by phosphorylation of p80Δ5
# T1 construct: purchased New England Biolabs, Beverly, Mass
# T1 sequence (Q06486 1-317 limits assumed): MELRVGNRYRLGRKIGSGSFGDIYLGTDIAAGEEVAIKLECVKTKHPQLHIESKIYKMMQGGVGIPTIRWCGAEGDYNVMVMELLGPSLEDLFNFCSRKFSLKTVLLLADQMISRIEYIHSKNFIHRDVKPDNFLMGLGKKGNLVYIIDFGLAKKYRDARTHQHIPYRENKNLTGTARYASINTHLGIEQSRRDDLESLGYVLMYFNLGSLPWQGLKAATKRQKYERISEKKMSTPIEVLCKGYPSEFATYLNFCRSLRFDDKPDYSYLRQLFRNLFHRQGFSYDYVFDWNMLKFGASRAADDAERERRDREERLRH
# Experimental: as §1, §2
inhibition at 100 µM (purified casein kinase 1),SMILES,extent of phosphorylation of the p80 receptor [1],effect on p80TRAK activity as measured by phosphorylation of p80Δ5 (in words) (p80TRAK),"inhibition of p80TRAK, measured by phosphorylation of p80Δ5 (p80TRAK; 100 μM inhibitor, p80TRAK precipitated from U937 cells)"
–,CN[C@@H]1C[C@H]2O[C@@](C)([C@@H]1OC)n1c3ccccc3c3c4c(c5c6ccccc6n2c5c31)C(=O)NC4 [staurosporine],reduced,–,–
80%,NCCNS(=O)(=O)c1ccc(Cl)c2ccncc12 [casein kinase 1-7],–,inhibited,50%
